From patent US20250026752A1, “POSITIVE ALLOSTERIC MODULATORS OF THE MUSCARINIC ACETYLCHOLINE RECEPTOR M4” (Vanderbilt University, priority 2021, published 2025)

Target: T1, human mAChR M4 (Homo sapiens, UniProt P08173)
T1 construct: expressed in transfected cells; host or cells: CHO-K1 (ATCC), stably expressing hM4 and Gqi5
T1 sequence (P08173 1-479): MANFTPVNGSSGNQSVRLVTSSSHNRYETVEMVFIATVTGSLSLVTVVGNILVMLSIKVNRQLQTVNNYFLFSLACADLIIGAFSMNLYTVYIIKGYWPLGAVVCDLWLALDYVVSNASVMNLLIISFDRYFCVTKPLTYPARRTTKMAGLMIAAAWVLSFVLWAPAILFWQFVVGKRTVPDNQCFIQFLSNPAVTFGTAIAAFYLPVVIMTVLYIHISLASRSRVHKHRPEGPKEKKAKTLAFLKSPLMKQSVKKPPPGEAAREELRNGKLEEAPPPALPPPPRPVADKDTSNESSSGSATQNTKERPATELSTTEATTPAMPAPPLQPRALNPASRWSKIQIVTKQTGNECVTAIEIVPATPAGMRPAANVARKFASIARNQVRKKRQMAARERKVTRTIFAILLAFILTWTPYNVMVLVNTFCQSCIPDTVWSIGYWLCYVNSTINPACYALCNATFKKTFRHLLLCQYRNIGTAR
Test: mAChR M4 cell-based functional assay: calcium flux (Fluo-4, FDSS), positive allosteric modulator activity on the EC20 acetylcholine response, hM4-Gqi5 CHO-K1 cells
Conditions: for Emax at 30 µM: CHO-K1, human M4, % ACh maximum at 30 μM; for EC50: human M4, PAM activity on EC20 acetylcholine response, calcium flux, read-out: Human M4 EC50
Summary of the method: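 Potentiation was taken as the concentration-dependent rise in the EC20 acetylcholine calcium response, fitted by a four-parameter logistic with EC20 as baseline. Fluo-4-loaded hM4-Gqi5 CHO-K1 cells received 11-point, threefold-diluted compound before acetylcholine at 144 s; FDSS read at 1 Hz.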

SMILES	Emax at 30 µM [%]	EC50 [nM]
Cc1nn(C)cc1-c1cnc2c(c1)CN(c1nc(Cl)nc3ccc(Cl)cc13)CC2 [Compound 28, 2,6-dichloro-4-[3-(1,3-dimethylpyrazol-4-yl)-7,8-dihydro-5H-1,6-naphthyridin-6-yl]quinazoline]	103	570
FC(F)(F)c1cnc2c(c1)CN(c1nc(C3CC3)nc3ccc(Cl)cc13)CC2 [Compound 186, 6-chloro-2-cyclopropyl-4-[3-(trifluoromethyl)-7,8-dihydro-5H-1,6-naphthyridin-6-yl]quinazoline]	75	> 10000
Clc1ccc2nc(C3CC3)nc(N3CCc4ncc(N5CCCn6nccc65)cc4C3)c2c1 [Compound 192, 6-chloro-2-cyclopropyl-4-[3-(6,7-dihydro-5H-pyrazolo[1,5-a]pyrimidin-4-yl)-7,8-dihydro-5H-1,6-naphthyridin-6-yl]quinazoline]	100	410
Fc1ccc2nc(C(F)(F)F)nc(N3CCc4ncc(-c5ccn(C6CC6)n5)cc4C3)c2c1 [Compound 65, 4-[3-(1-cyclopropylpyrazol-3-yl)-7,8-dihydro-5H-1,6-naphthyridin-6-yl]-6-fluoro-2-(trifluoromethyl)quinazoline]	52	1380
Cc1ccc(-c2cnc3c(c2)CN(c2nc(Cl)nc4cc(Cl)c(F)cc24)CC3)cn1 [Compound 63, 2,7-dichloro-6-fluoro-4-[3-(6-methyl-3-pyridyl)-7,8-dihydro-5H-1,6-naphthyridin-6-yl]quinazoline]	26	400
Cc1nc(N2CCc3ncc(-c4cnn(C)c4)cc3C2)c2cc(Cl)ccc2n1 [Compound 46, 6-chloro-2-methyl-4-[3-(1-methylpyrazol-4-yl)-7,8-dihydro-5H-1,6-naphthyridin-6-yl]quinazoline]	97	170
CC(O)(c1cnc2c(c1)CN(c1ncnc3cc(F)c(F)cc13)CC2)C(F)(F)F (stereo not drawn) [Compound 290, 2-(6-(6,7-difluoroquinazolin-4-yl)-5,6,7,8-tetrahydro-1,6-naphthyridin-3-yl)-1,1,1-trifluoropropan-2-ol]	91	200
Cc1nc(N2CCc3ncc(N4CCN(C)C(=O)C4)cc3C2)c2cc(Cl)ccc2n1 [Compound 274, 4-(6-(6-chloro-2-methylquinazolin-4-yl)-5,6,7,8-tetrahydro-1,6-naphthyridin-3-yl)-1-methylpiperazin-2-one]	82	650
C[C@H]1CN(c2ncnc3cc(F)c(F)cc23)Cc2cc(N3CCOCC3)cnc21 [Compound 261, (S)-4-(6-(6,7-difluoroquinazolin-4-yl)-8-methyl-5,6,7,8-tetrahydro-1,6-naphthyridin-3-yl)morpholine]	79	440
Cc1nc(N2CCc3ncc(C(F)(F)F)cc3C2)c2cc(C3CC3)ccc2n1 [Compound 143, 6-cyclopropyl-2-methyl-4-[3-(trifluoromethyl)-7,8-dihydro-5H-1,6-naphthyridin-6-yl]quinazoline]	77	1420
Cc1nc(N2CCc3ncc(C(F)(F)F)cc3C2)c2ccccc2n1 [Compound 138, 2-methyl-4-[3-(trifluoromethyl)-7,8-dihydro-5H-1,6-naphthyridin-6-yl]quinazoline]	82	480
Cc1nn(C)cc1-c1cnc2c(c1)CN(c1ncnc3ccc(Cl)cc13)CC2 [Compound 6, 6-chloro-4-[3-(1,3-dimethylpyrazol-4-yl)-7,8-dihydro-5H-1,6-naphthyridin-6-yl]quinazoline]	88	70
Cc1ccc2nc(C)nc(N3CCc4ncc(-c5cnn(C6CC6)c5)cc4C3)c2c1 [Compound 33, 4-[3-(1-cyclopropylpyrazol-4-yl)-7,8-dihydro-5H-1,6-naphthyridin-6-yl]-2,6-dimethyl-quinazoline]	92	380
Fc1ccc2ncnc(N3CCc4ncc(-c5ccc(C6CC6)nc5)cc4C3)c2c1 [Compound 37, 4-[3-(6-cyclopropyl-3-pyridyl)-7,8-dihydro-5H-1,6-naphthyridin-6-yl]-6-fluoro-quinazoline]	88	260
Cc1ccccc1-c1cnc2c(c1)CN(c1ncnc3ccc(F)cc13)CC2 [Compound 292, 6-fluoro-4-(3-(o-tolyl)-7,8-dihydro-1,6-naphthyridin-6(5H)-yl)quinazoline]	79	660
Cc1ccc(-c2cnc3c(c2)CN(c2ncnc4ccc(F)cc24)CC3)cn1 [Compound 38, 6-fluoro-4-[3-(6-methyl-3-pyridyl)-7,8-dihydro-5H-1,6-naphthyridin-6-yl]quinazoline]	93	170
c1cnc2nc(NC3CCOC3)nc(N3CCc4ncc(N5CCCn6nccc65)cc4C3)c2c1 (stereo not drawn) [Compound 245, 4-(3-(6,7-dihydropyrazolo[1,5-a]pyrimidin-4(5H)-yl)-7,8-dihydro-1,6-naphthyridin-6(5H)-yl)-N-(tetrahydrofuran-3-yl)pyrido[2,3-d]pyrimidin-2-amine]	80	220
Fc1ccc2c(N3CCc4ncc(C(F)(F)F)cc4C3)ncnc2c1 [Compound 137, 7-fluoro-4-[3-(trifluoromethyl)-7,8-dihydro-5H-1,6-naphthyridin-6-yl]quinazoline]	83	430
Fc1cc2ncnc(N3CCc4ncc(Oc5ccccc5F)cc4C3)c2cc1F [Compound 158, 6,7-difluoro-4-[3-(2-fluorophenoxy)-7,8-dihydro-5H-1,6-naphthyridin-6-yl]quinazoline]	80	270
Fc1cc2ncnc(N3CCc4ncc(N5CCOc6ncccc65)cc4C3)c2cc1F [Compound 98, 1-[6-(6,7-difluoroquinazolin-4-yl)-7,8-dihydro-5H-1,6-naphthyridin-3-yl]-2,3-dihydropyrido[2,3-b][1,4]oxazine]	97	30
Cc1nc(N2CCc3ncc(-c4c(C)noc4C)cc3C2)c2cc(F)ccc2n1 [Compound 22, 4-[6-(6-fluoro-2-methyl-quinazolin-4-yl)-7,8-dihydro-5H-1,6-naphthyridin-3-yl]-3,5-dimethyl-isoxazole]	90	120
Cc1cc(F)ncc1-c1cnc2c(c1)CN(c1ncnc3ccc(F)cc13)CC2 [Compound 304, 6-fluoro-4-(3-(6-fluoro-4-methylpyridin-3-yl)-7,8-dihydro-1,6-naphthyridin-6(5H)-yl)quinazoline]	95	80
Cc1ccc2nc(NCC(C)(C)O)nc(N3CCc4ncc(C(F)(F)F)cc4C3)c2c1 [Compound 208, 2-methyl-1-[[6-methyl-4-[3-(trifluoromethyl)-7,8-dihydro-5H-1,6-naphthyridin-6-yl]quinazolin-2-yl]amino]propan-2-ol]	76	390
Cc1nc(N2CCc3ncc(N4CCOc5ncccc54)cc3C2)c2cc(Cl)ccc2n1 [Compound 107, 1-[6-(6-chloro-2-methyl-quinazolin-4-yl)-7,8-dihydro-5H-1,6-naphthyridin-3-yl]-2,3-dihydropyrido[2,3-b][1,4]oxazine]	98	140
Fc1ccc2ncnc(N3CCc4ncc(Cc5ccccc5F)cc4C3)c2c1 [Compound 164, 6-fluoro-4-[3-[(2-fluorophenyl)methyl]-7,8-dihydro-5H-1,6-naphthyridin-6-yl]quinazoline]	75	590
Cc1noc(C)c1-c1cnc2c(c1)CN(c1ncnc3cc(F)c(F)cc13)CC2 [Compound 240, 4-(6-(6,7-difluoroquinazolin-4-yl)-5,6,7,8-tetrahydro-1,6-naphthyridin-3-yl)-3,5-dimethylisoxazole]	79	210
Cc1nc(N2CCc3ncc(-c4ccnn4C(C)C)cc3C2)c2cc(Cl)ccc2n1 [Compound 254, 6-chloro-4-(3-(1-isopropyl-1H-pyrazol-5-yl)-7,8-dihydro-1,6-naphthyridin-6(5H)-yl)-2-methylquinazoline]	86	360
Cc1ccc(-c2cnc3c(c2)CN(c2nc(Cl)nc4ncccc24)CC3)cn1 [Compound 36, 2-chloro-4-[3-(6-methyl-3-pyridyl)-7,8-dihydro-5H-1,6-naphthyridin-6-yl]pyrido[2,3-d]pyrimidine]	69	650
C[C@@H]1CN(c2ncnc3ccc(F)cc23)Cc2cc(N3CCOCC3)cnc21 [Compound 259, (R)-4-(6-(6-fluoroquinazolin-4-yl)-8-methyl-5,6,7,8-tetrahydro-1,6-naphthyridin-3-yl)morpholine]	91	200
CC1CN(c2ncnc3ccc(F)cc23)Cc2cc(C(F)(F)F)cnc21 (single isomer, unassigned) [Compound 116, 6-fluoro-4-[(8R or S)-8-methyl-3-(trifluoromethyl)-7,8-dihydro-5H-1,6-naphthyridin-6-yl]quinazoline]	113	70
